Experimental data reported in patent US8741836B2, “Polypeptides” (Novo Nordisk A/S, priority 2011, dated 2014).
Starred links: 1 amine or outer side, 2 acyl side, 3 side chain; linkers in the order of their positions; H or OH if unused. Positions of bridges follow the written chain, without caps; N, C: chain ends. Non-standard residues stand in square brackets, D forms with d. Residues, ends and D or L forms follow the SMILES beside them. *: point of attachment. C20 diacid = O=C(O)CCCCCCCCCCCCCCCCCCC(=O)*; C18 diacid = O=C(O)CCCCCCCCCCCCCCCCC(=O)*; γGlu = O=C(O)[C@H](CCC(=O)[*:2])N[*:1]; Orn = NCCC[C@H](N)C(=O)O; AEEA = NCCOCCOCC(=O)O

Test system: ad libitum fed rat
Assay: Assay (I) efficacy testing on appetite (food intake) using an ad libitum fed rat model
Type: in vivo, Sprague Dawley (SD) rats
Procedure, shortened: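 Ad libitum fed Sprague Dawley rats, 200-250 g, singly housed on reversed light cycle, got one ip, po or sc dose of 0.01-3 mg/kg just before lights off; groups of 5-8 with vehicle control. Food intake recorded hourly for 7 h, then at 24 h and sometimes 48 h; Grubbs outliers excluded.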

SMILES	Food intake reduction 0-24 h 3 nmol/kg (%) (0-24 h)	Food intake reduction 24-48 h 3 nmol/kg (%) (24-48 h)	Food intake reduction 0-24 h 30 nmol/kg (%) (30 nmol/kg, 0-24 h)	Food intake reduction 24-48 h 30 nmol/kg (%) (30 nmol/kg, 24-48 h)
CC[C@H](C)[C@H](NC(=O)[C@@H]1CCCN1C(=O)CNC(=O)[C@H](Cc1ccccc1)NC(=O)[C@H](CC(N)=O)NC(=O)[C@H](CC(N)=O)NC(=O)[C@H](CO)NC(=O)[C@H](CO)NC(=O)[C@H](CCCNC(=N)N)NC(=O)[C@H](Cc1c[nH]cn1)NC(=O)[C@H](CC(C)C)NC(=O)[C@H](Cc1ccccc1)NC(=O)[C@H](CCC(=O)O)NC(=O)[C@H](C)NC(=O)[C@H](CC(C)C)NC(=O)[C@H](CCCNC(=N)N)NC(=O)[C@H](CCC(N)=O)NC(=O)[C@@H](NC(=O)[C@H](C)NC(=O)[C@@H]1CSSC[C@H](NC(=O)CC[C@H](NC(=O)CCCCCCCCCCCCCCCCCCC(=O)O)C(=O)O)C(=O)NCC(=O)N[C@@H]([C@@H](C)O)C(=O)N[C@@H](C)C(=O)N[C@@H]([C@@H](C)O)C(=O)N1)[C@@H](C)O)C(=O)N[C@@H](CC(C)C)C(=O)N1CCC[C@H]1C(=O)N1CCC[C@H]1C(=O)N[C@H](C(=O)N[C@@H](CCC(=O)O)C(=O)N[C@H](C(=O)NCC(=O)N[C@@H](CO)C(=O)NCC(=O)N[C@H](C(=O)N[C@@H](Cc1ccc(O)cc1)C(N)=O)[C@@H](C)O)C(C)C)[C@@H](C)O [Example 3, N-alpha-[(S)-4-Carboxy-4-(19-carboxynonadecanoylamino)butyryl]-[des1,Gly3,Glu14,His17,Arg18,Glu31,Gly35]-pramlintide] ({C20 diacid-γGlu}-CGTATCATQRLAEFLHRSSNNFGPILPPTEVGSGTY-NH2; disulfide 1-6)	37	32		
CC[C@H](C)[C@H](NC(=O)[C@@H]1CCCN1C(=O)CNC(=O)[C@H](Cc1ccccc1)NC(=O)[C@H](CC(N)=O)NC(=O)[C@H](CC(N)=O)NC(=O)[C@H](CO)NC(=O)[C@H](CO)NC(=O)[C@H](Cc1c[nH]cn1)NC(=O)[C@H](Cc1c[nH]cn1)NC(=O)[C@H](CC(C)C)NC(=O)[C@H](Cc1ccccc1)NC(=O)[C@H](CCC(=O)O)NC(=O)[C@H](C)NC(=O)[C@H](CC(C)C)NC(=O)[C@H](CCCNC(=N)N)NC(=O)[C@H](CCC(N)=O)NC(=O)[C@@H](NC(=O)[C@H](C)NC(=O)[C@@H]1CSSC[C@H](NC(=O)[C@H](CCCCN)NC(=O)CC[C@H](NC(=O)CCCCCCCCCCCCCCCCCCC(=O)O)C(=O)O)C(=O)N[C@@H](CC(N)=O)C(=O)N[C@@H]([C@@H](C)O)C(=O)N[C@@H](C)C(=O)N[C@@H]([C@@H](C)O)C(=O)N1)[C@@H](C)O)C(=O)N[C@@H](CC(C)C)C(=O)N1CCC[C@H]1C(=O)N1CCC[C@H]1C(=O)N[C@H](C(=O)N[C@@H](CC(N)=O)C(=O)N[C@H](C(=O)NCC(=O)N[C@@H](CO)C(=O)N[C@@H](CC(N)=O)C(=O)N[C@H](C(=O)N[C@@H](Cc1ccc(O)cc1)C(N)=O)[C@@H](C)O)C(C)C)[C@@H](C)O [Example 27, N-alpha-[(S)-4-Carboxy-4-(19-carboxynonadecanoylamino)butyryl]-[Glu14,His17]-pramlintide] ({C20 diacid-γGlu}-KCNTATCATQRLAEFLHHSSNNFGPILPPTNVGSNTY-NH2; disulfide 2-7 (inferred))	56	53		
CC[C@H](C)[C@H](NC(=O)[C@@H]1CCCN1C(=O)CNC(=O)[C@H](Cc1ccccc1)NC(=O)[C@H](CC(N)=O)NC(=O)[C@H](CC(N)=O)NC(=O)[C@H](CO)NC(=O)[C@H](CO)NC(=O)[C@H](Cc1c[nH]cn1)NC(=O)[C@H](Cc1c[nH]cn1)NC(=O)[C@H](CC(C)C)NC(=O)[C@H](Cc1ccccc1)NC(=O)[C@H](CCC(=O)O)NC(=O)[C@H](C)NC(=O)[C@H](CC(C)C)NC(=O)[C@H](CCCNC(=N)N)NC(=O)[C@H](CCC(N)=O)NC(=O)[C@@H](NC(=O)[C@H](C)NC(=O)[C@@H]1CSSC[C@H](NC(=O)[C@H](CCCCN)NC(=O)CC[C@H](NC(=O)CCCCCCCCCCCCCCCCC(=O)O)C(=O)O)C(=O)N[C@@H](CC(N)=O)C(=O)N[C@@H]([C@@H](C)O)C(=O)N[C@@H](C)C(=O)N[C@@H]([C@@H](C)O)C(=O)N1)[C@@H](C)O)C(=O)N[C@@H](CC(C)C)C(=O)N1CCC[C@H]1C(=O)N1CCC[C@H]1C(=O)N[C@H](C(=O)N[C@@H](CC(N)=O)C(=O)N[C@H](C(=O)NCC(=O)N[C@@H](CO)C(=O)N[C@@H](CC(N)=O)C(=O)N[C@H](C(=O)N[C@@H](Cc1ccc(O)cc1)C(N)=O)[C@@H](C)O)C(C)C)[C@@H](C)O [Example 46, N-alpha-[(S)-4-Carboxy-4-(17-carboxyheptadecanoylamino)butyryl]-[Glu14,His17]-pramlintide] ({C18 diacid-γGlu}-KCNTATCATQRLAEFLHHSSNNFGPILPPTNVGSNTY-NH2; disulfide 2-7 (inferred); C-terminus assumed)	54	27		
CC[C@H](C)[C@H](NC(=O)[C@@H]1CCCN1C(=O)CNC(=O)[C@H](Cc1ccccc1)NC(=O)[C@H](CC(N)=O)NC(=O)[C@H](CC(N)=O)NC(=O)[C@H](CO)NC(=O)[C@H](CO)NC(=O)[C@H](Cc1c[nH]cn1)NC(=O)[C@H](Cc1c[nH]cn1)NC(=O)[C@H](CC(C)C)NC(=O)[C@H](Cc1ccccc1)NC(=O)[C@H](CCC(=O)O)NC(=O)[C@H](C)NC(=O)[C@H](CC(C)C)NC(=O)[C@H](CCCNC(=N)N)NC(=O)[C@H](CCC(N)=O)NC(=O)[C@@H](NC(=O)[C@H](C)NC(=O)[C@@H]1CSSC[C@H](NC(=O)[C@H](CCCCN)NC(=O)[C@H](CCC(=O)O)NC(=O)CC[C@H](NC(=O)CCCCCCCCCCCCCCCCCCC(=O)O)C(=O)O)C(=O)N[C@@H](CC(N)=O)C(=O)N[C@@H]([C@@H](C)O)C(=O)N[C@@H](C)C(=O)N[C@@H]([C@@H](C)O)C(=O)N1)[C@@H](C)O)C(=O)N[C@@H](CC(C)C)C(=O)N1CCC[C@H]1C(=O)N1CCC[C@H]1C(=O)N[C@H](C(=O)N[C@@H](CC(N)=O)C(=O)N[C@H](C(=O)NCC(=O)N[C@@H](CO)C(=O)N[C@@H](Cc1c[nH]cn1)C(=O)N[C@H](C(=O)N[C@@H](Cc1ccc(O)cc1)C(N)=O)[C@@H](C)O)C(C)C)[C@@H](C)O [Example 56, N-alpha-[(S)-4-Carboxy-4-(19-carboxynonadecanoylamino)butyryl]-Glu-[Glu14,His17,His35]-pramlintide] ({C20 diacid-γGlu}-EKCNTATCATQRLAEFLHHSSNNFGPILPPTNVGSHTY-NH2; disulfide 3-8)	46	21		
CC[C@H](C)[C@H](NC(=O)[C@@H]1CCCN1C(=O)CNC(=O)[C@H](Cc1ccccc1)NC(=O)[C@H](CC(N)=O)NC(=O)[C@H](CC(N)=O)NC(=O)[C@H](CO)NC(=O)[C@H](CO)NC(=O)[C@H](CCCNC(=N)N)NC(=O)[C@H](Cc1c[nH]cn1)NC(=O)[C@H](CC(C)C)NC(=O)[C@H](Cc1ccccc1)NC(=O)[C@H](CCC(=O)O)NC(=O)[C@H](C)NC(=O)[C@H](CC(C)C)NC(=O)[C@H](CCCNC(=N)N)NC(=O)[C@H](CCC(N)=O)NC(=O)[C@@H](NC(=O)[C@H](C)NC(=O)[C@@H]1CSSC[C@H](NC(=O)[C@H](CCCN)NC(=O)[C@@H](CCCNC(=N)N)NC(=O)[C@@H](CCCNC(=N)N)NC(=O)COCCOCCNC(=O)COCCOCCNC(=O)CC[C@H](NC(=O)CCCCCCCCCCCCCCCCC(=O)O)C(=O)O)C(=O)N[C@@H](CC(N)=O)C(=O)N[C@@H]([C@@H](C)O)C(=O)N[C@@H](C)C(=O)N[C@@H]([C@@H](C)O)C(=O)N1)[C@@H](C)O)C(=O)N[C@@H](CC(C)C)C(=O)N1CCC[C@H]1C(=O)N1CCC[C@H]1C(=O)N[C@H](C(=O)N[C@@H](CC(N)=O)C(=O)N[C@H](C(=O)NCC(=O)N[C@@H](CO)C(=O)N[C@@H](CC(N)=O)C(=O)N[C@H](C(=O)N[C@@H](Cc1ccc(O)cc1)C(N)=O)[C@@H](C)O)C(C)C)[C@@H](C)O [Example 120, N-alpha-[2-(2-{2-[2-(2-{2-[(S)-4-Carboxy-4-(17-carboxyheptadecanoylamino)butyrylamino]ethoxy}ethoxy)acetylamino]ethoxy}ethoxy)acetyl]-D-Arg-D-Arg-[Orn1,Glu14,His17,Arg18]-pramlintide] ({C18 diacid-γGlu-AEEA-AEEA}-[dR][dR][Orn]CNTATCATQRLAEFLHRSSNNFGPILPPTNVGSNTY-NH2; disulfide 4-9 (inferred))	53	2		
CC[C@H](C)[C@H](NC(=O)[C@@H]1CCCN1C(=O)CNC(=O)[C@H](Cc1ccccc1)NC(=O)[C@H](CC(N)=O)NC(=O)[C@H](CC(N)=O)NC(=O)[C@H](CO)NC(=O)[C@H](CO)NC(=O)[C@H](Cc1c[nH]cn1)NC(=O)[C@H](Cc1c[nH]cn1)NC(=O)[C@H](CC(C)C)NC(=O)[C@H](Cc1ccccc1)NC(=O)[C@H](CCC(=O)O)NC(=O)[C@H](C)NC(=O)[C@H](CC(C)C)NC(=O)[C@H](CCCNC(=N)N)NC(=O)[C@H](CCC(N)=O)NC(=O)[C@@H](NC(=O)[C@H](C)NC(=O)[C@@H]1CSSC[C@H](NC(=O)[C@H](Cc2c[nH]cn2)NC(=O)[C@H](Cc2c[nH]cn2)NC(=O)[C@H](Cc2c[nH]cn2)NC(=O)CC[C@H](NC(=O)CCCCCCCCCCCCCCCCCCC(=O)O)C(=O)O)C(=O)N[C@@H](CC(N)=O)C(=O)N[C@@H]([C@@H](C)O)C(=O)N[C@@H](C)C(=O)N[C@@H]([C@@H](C)O)C(=O)N1)[C@@H](C)O)C(=O)N[C@@H](CC(C)C)C(=O)N1CCC[C@H]1C(=O)N1CCC[C@H]1C(=O)N[C@H](C(=O)N[C@@H](CC(N)=O)C(=O)N[C@H](C(=O)NCC(=O)N[C@@H](CO)C(=O)N[C@@H](CC(N)=O)C(=O)N[C@H](C(=O)N[C@@H](Cc1ccc(O)cc1)C(N)=O)[C@@H](C)O)C(C)C)[C@@H](C)O [Example 11, N-alpha-[(S)-4-Carboxy-4-(19-carboxynonadecanoylamino)butyryl]-His-His-[His1,Glu14,His17]-pramlintide] ({C20 diacid-γGlu}-HHHCNTATCATQRLAEFLHHSSNNFGPILPPTNVGSNTY-NH2; disulfide 4-9 (inferred); C-terminus assumed)			87	92
